# Laboratory results published in patent US11229592B2, “Method for hair volume reduction” (Conopco, Inc., priority 2017, dated 2022).
# Legend:
# [1] = Shape and frizz control (volume) of straightened hair switches after high humidity, image analysis; settings: After 1 hour at high humidity (30 C./80% RH), switches soaked 30 minutes in 1% aqueous solution, dried, compared to water control
# Protocol: (§1) Dark brown European wavy hair switches of length 25 cm and weight 2 gms, were treated as follows:
# Control: After initial washing, soaked for 30 minutes in water
# Comparative Example A: After initial washing, soaked for 30 minutes in aqueous solution of 1% glycine
# Example 1: soaked for 30 minutes in aqueous solution of 1% N-formyl glycine
# (§2) At the end of the soaking period, the switches were left to dry at 20° C. and 50% RH. When dried, the switches were straightened with 5 passes of FHI irons (FHI Brands, 29003 Avenue Sherman Valencia, Calif. 91355 USA). The switches were then placed in a humidity chamber ˜30 C/80% RH for 1 hour and images were captured and analyzed.
# [2] = Long lasting and durable volume reduction of treated hair switches after subsequent washing; settings: switches from Example 1 subsequently washed, images captured; compared to control
# Protocol: as §1, §2
# The switches from the above example were subsequently washed and the images were captured. […] The corresponding benefits for glycine was only −10%.
Compound,% shape and frizz control benefit against control [1],benefit over control (volume reduction) [2]
"NCC(=O)O [Comparative Example A, glycine]",−6%,−10%
"O=CNCC(=O)O [Example 1, N-formyl glycine]",30%,32%
